Reference: US20040138193A1, “Oestrogen fatty acid monoester as a hypolipidaemic and antidiabetic agent” (priority 2001, published 2004)

Columns and labels:
[1] = test system: normal-weight adult female Zucker rats (genotype Fa/?); experiment: Plasma lipoproteinogram (polyacrylamide gel electrophoresis), normal-weight rats; format: in vivo, rat; details: 10 micromols per kg daily, 10 days
Method: FIG. 1 is a lipoproteinogram of plasma from normal-weight rats (Zucker Fa/?), showing the effect of oleoyl-estrone on lipoprotein distribution. I=intact; C=control; T=treated with oleoyl-estrone; HDL=high-density lipoproteins; LDL=low-density lipoproteins; VLDL=very low-density lipoproteins.
Since treatment with oleoyl-estrone deeply modifies the plasma lipids of rats, an experiment was carried out to determine whether the oral administration of oleoyl-estrone modifies the plasma lipidogram of lean and genetically obese rats. Two groups of animals were used: (1) normal-weight adult female Zucker rats (genotype Fa/?), and (2) genetically obese adult female Zucker rats (genotype fa/fa). In the first group one rat was killed to obtain a sample of blood (intact control); in the second group (obese rats), two intact controls were killed and their blood recovered. […] All blood samples were centrifuged to obtain plasma; plasma proteins were analysed by means of polyacrylamide gel electroforesis (kit Lipofilm, Sebia, Issy les Molineaux, France), lipids were stained with Sudan black.

Zucker fa/fa rat = experiment: Plasma parameters after 10 days of daily oral gavage in Zucker fa/fa rats (type 2 diabetes model); format: in vivo; details: for plasma 3-hydroxybutyrate / plasma non-esterified fatty acids / plasma glucose / plasma insulin / plasma total cholesterol / plasma triacylglycerols: 10 days
Method: A study was carried out using the Zucker fa/fa rat as experimental animal model for type 2 diabetes. In these rats a marked insulin resistance is known; their circulating glucose levels are somewhat higher than in normal rats, but their insulin levels are much higher and show marked hypertriacylglycerolemia and hypercholesterolemia. Four groups of adult Zucker fa/fa rats were used, two groups of 6 male rats each and two groups of 6 female rats each. For each sex, the first group was used as control and the other was treated with the drug. All rats were kept under standard housing conditions, with free access to water and pellet food. The animals received a daily gavage of 0.2 ml of sunflower oil by means of a stomach tube. In the treated-rat groups, the oil contained enough oleoyl-estrone dissolved to provide a daily dose of 10 micromol per kg of rat weight. After 10 days of daily gavages, the rats were killed and their blood was recovered, being used to obtain plasma by centrifugation. Plasma samples were used for the analysis of glucose, total cholesterol and triacylglycerols by means of a dry-strip procedure (Spotchem, Menarini, Firenze, Italy), the levels of 3-hydroxybutyrate were measured with the kit 907979 from Boehringer Mannheim (Mannheim, Germany), and non-esterified fatty acids with the kit 1383175 from the same company. Insulin levels were measured through radioimmunoassay (rat insulin kit, Amersham, Amersham, United Kingdom).

[2] = test system: genetically obese adult female Zucker rats (genotype fa/fa); experiment: Plasma lipoproteinogram (polyacrylamide gel electrophoresis), obese rats; format: in vivo, rat; details: 10 micromols per kg daily, 10 days
Method: FIG. 2 is a lipoproteinogram analogous to the one of FIG. 1, but using obese rats (Zucker fa/fa).
Since treatment with oleoyl-estrone deeply modifies the plasma lipids of rats, an experiment was carried out to determine whether the oral administration of oleoyl-estrone modifies the plasma lipidogram of lean and genetically obese rats. Two groups of animals were used: (1) normal-weight adult female Zucker rats (genotype Fa/?), and (2) genetically obese adult female Zucker rats (genotype fa/fa). In the first group one rat was killed to obtain a sample of blood (intact control); in the second group (obese rats), two intact controls were killed and their blood recovered. All the remaining rats were kept under standard housing conditions, with free access to food and water; the rats receivid a daily gavage of 0.2 ml of sunflower oil by means of a stomach tube; in three rats form each group, the oil was supplemented with enough oleoyl-estrone to achieve a daily dose of 10 micromols per kg of rat weight. After 10 days of treatment, the rats were killed, and their blood was recovered. All blood samples were centrifuged to obtain plasma; plasma proteins were analysed by means of polyacrylamide gel electroforesis (kit Lipofilm, Sebia, Issy les Molineaux, France), lipids were stained with Sudan black.

[3] = Zucker fa/fa rats, oral treatment vs controls
[4] = Zucker fa/fa rats, oral treatment vs controls, P<0.05
[5] = female obese Zucker fa/fa rats, 10 μmol/kg · d oral gavage
[6] = female obese Zucker fa/fa rats, 10 mol/kg · d oral gavage
[7] = male obese Zucker fa/fa rats, 10 μmol/kg · d oral gavage

CCCCCCCC/C=C\CCCCCCCC(=O)Oc1ccc2c(c1)CC[C@@H]1[C@@H]2CC[C@]2(C)C(=O)CC[C@@H]12 [oleoyl-estrone]
change of VLDLs in lipoproteinogram [1]: marked increase
change of high density lipoproteins in lipoproteinogram [1]: marked reduction
change in 3-hydroxybutyrate (Zucker fa/fa rat; [3]): no changes
change in insulin levels (Zucker fa/fa rat; [3]): marked decrease
change in non-esterified fatty acids (Zucker fa/fa rat; [3]): no changes
change in plasma concentration of glucose (Zucker fa/fa rat; [4]): significant decreases
change in plasma concentration of total cholesterol (Zucker fa/fa rat; [4]): significant decreases
change in plasma concentration of triacylglycerols (Zucker fa/fa rat; [4]): significant decreases
plasma 3-hydroxybutyrate (Zucker fa/fa rat; [5]): 187 ± 26 µM
plasma non-esterified fatty acids (Zucker fa/fa rat; [5]): 642 ± 52 µM
plasma glucose (Zucker fa/fa rat; [6]): 4.91 ± 0.17 mM
plasma insulin (Zucker fa/fa rat; [6]): 1.78 ± 0.21 nM
plasma total cholesterol (Zucker fa/fa rat; [6]): 1.59 ± 0.29 mM
plasma triacylglycerols (Zucker fa/fa rat; [6]): 1.80 ± 0.17 mM
plasma 3-hydroxybutyrate (Zucker fa/fa rat; [7]): 281 ± 31 µM
plasma glucose (Zucker fa/fa rat; [7]): 6.14 ± 0.13 mM
plasma insulin (Zucker fa/fa rat; [7]): 1.11 ± 0.12 nM
plasma non-esterified fatty acids (Zucker fa/fa rat; [7]): 720 ± 110 µM
plasma total cholesterol (Zucker fa/fa rat; [7]): 1.77 ± 0.26 mM
plasma triacylglycerols (Zucker fa/fa rat; [7]): 1.88 ± 0.19 mM
lipoprotein pattern in lipoproteinogram [2]: this same pattern is repeated, but there is an additional wide band between the LDL and VLDL zones
